Reference: patent publication US20220144823A1, “PYRAZOLOPYRIDINE DERIVATIVES AS INHIBITORS OF PASK” (Galapagos NV, priority 2019, published 2022)

Legend:
[1] = biological target: T1, human PASK (Homo sapiens, UniProt Q96RG2); test: ADP-Glo kinase assay; format: biochemical; settings: ADPGlo PASK kinase assay, 25 μM ATP, ZIPtide 25 μM
T1 construct: purchased ThermoFisher Scientific PR7013A
Protocol: The ADP-Glo™ kinase assay is a luminescent technology assay which measures the ADP formed from a kinase reaction. In this specific study, the kinase reactions consisted of the phosphorylation of the ZIPtide peptide substrate by human recombinant PASK. In a second step the kinase reaction is terminated and all the remaining ATP is depleted. In a final step the ADP is converted into ATP and this newly synthesized ATP is measured by using a luciferase/luciferin reaction. The generated light is measured using an Envision plate reader, wherein the luminescent signal obtained positively correlates with the kinase activity.
The test compounds are prepared as a serial dilution of 10 point dose responses with 1/5 dilution steps in 100% DMSO starting from 2 mM highest concentration, diluted 1/20 in water and 1 μL is transferred to the assay plates (PerkinElmer Inc., Cat #6007290).
1% DMSO and 10 μM staurosporine final concentrations are used respectively as negative and positive controls.
2 μL enzyme-substrate mixture is added to the assay plates.
The reaction is started by adding 2 μL diluted ATP on the assay plates immediately after addition of the enzyme-substrate mixture to the compound. Plates are centrifuged for a few seconds at 1000 rpm and gently shaken for 2 min followed by an incubation at RT for 120 min.
The reactions are stopped and the unconsumed ATP is depleted by adding 5 μL ADP-Glo Reagent (Promega, Cat #V912B) to the reaction. The plates are centrifuged for a few seconds at 1000 rpm and incubated at RT for 40 min (ATP depletion).
The ADP is converted to ATP and luciferase and luciferin is introduced to detect ATP by adding 10 μL Kinase Detection Reagent (Promega, Cat #V913B+V914B) to the reaction. The plates are centrifuged for a few seconds at 1000 rpm and incubated at RT for 30 min (ADP detection).
Luminescence is measured on an Envision plate reader (PerkinElmer Inc.).
Raw data are generated following the read-out performed on the Envision plate reader, used to calculate percentage inhibition (PIN) values and plotted to generate dose response curves and derive the average half maximal inhibitory concentrations (IC50) reported in Table VIII.

[2] = system: diabetic non human primates (NHPs) under a high-calorie diet (HCD); test: Diabetic monkey model;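 also: male obese diabetic cynomolgus monkeys fed a high-fat, high-fructose diet, randomized into 4 groups, dosed with test compound for 8 weeks, then a 4-week washout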
Protocol: The aim of this assay is to determine the effect of a test compound on lipid metabolism and glucose handling in diabetic non human primates (NHPs) under a high-calorie diet (HCD) consisting of high-fat and high-fructose.
Male obese diabetic cynomolgus monkeys were selected based on their body weights, glucose, insulin levels, and blood lipid parameters. The inclusion criteria were the following: age ≤22 years; fasted plasma glucose between 120 and 300 mg/dL; triglycerides >125 mg/dL, and insulin >75 mIU/mL.
The animals are maintained at 20-23° C. and 40-70% humidity on a 12 h light/dark cycle (7 AM-7 PM). Water is provided ad libitum and the animals are fed twice daily with the high-calorie diet (HCD) enriched with seasonal fruits or vegetables.
After the baseline period, animals were randomized into 4 groups according to body weight, as well as their blood glucose and lipid parameters.
The following parameters were measured once per week during the 8 weeks of treatment and also during the 4 weeks of washout: • body weight • food consumption • blood chemistry (fasted blood glucose, plasma triglycerides, plasma total cholesterol, low density lipoproteins (LDL), and high density lipoproteins (HDL))
Oral glucose tolerance was measured in fasted animals before treatment initiation (baseline), at the end of the treatment period (week 8), and after 4 weeks of washout (week 12).

[3] = week 1, treatment, metformin 25 mg/kg b.i.d., Cpd 18 30 mg/kg q.d., p.o.
[4] = week 2, treatment, metformin 25 mg/kg b.i.d., Cpd 18 30 mg/kg q.d., p.o.
[5] = week 3, treatment, metformin 25 mg/kg b.i.d., Cpd 18 30 mg/kg q.d., p.o.
[6] = week 4, treatment, metformin 25 mg/kg b.i.d., Cpd 18 30 mg/kg q.d., p.o.
[7] = week 9, washout without treatment
[8] = week 10, washout without treatment
[9] = week 11, washout without treatment
[10] = week 12, washout without treatment

T1 sequence (Q96RG2 whole entry): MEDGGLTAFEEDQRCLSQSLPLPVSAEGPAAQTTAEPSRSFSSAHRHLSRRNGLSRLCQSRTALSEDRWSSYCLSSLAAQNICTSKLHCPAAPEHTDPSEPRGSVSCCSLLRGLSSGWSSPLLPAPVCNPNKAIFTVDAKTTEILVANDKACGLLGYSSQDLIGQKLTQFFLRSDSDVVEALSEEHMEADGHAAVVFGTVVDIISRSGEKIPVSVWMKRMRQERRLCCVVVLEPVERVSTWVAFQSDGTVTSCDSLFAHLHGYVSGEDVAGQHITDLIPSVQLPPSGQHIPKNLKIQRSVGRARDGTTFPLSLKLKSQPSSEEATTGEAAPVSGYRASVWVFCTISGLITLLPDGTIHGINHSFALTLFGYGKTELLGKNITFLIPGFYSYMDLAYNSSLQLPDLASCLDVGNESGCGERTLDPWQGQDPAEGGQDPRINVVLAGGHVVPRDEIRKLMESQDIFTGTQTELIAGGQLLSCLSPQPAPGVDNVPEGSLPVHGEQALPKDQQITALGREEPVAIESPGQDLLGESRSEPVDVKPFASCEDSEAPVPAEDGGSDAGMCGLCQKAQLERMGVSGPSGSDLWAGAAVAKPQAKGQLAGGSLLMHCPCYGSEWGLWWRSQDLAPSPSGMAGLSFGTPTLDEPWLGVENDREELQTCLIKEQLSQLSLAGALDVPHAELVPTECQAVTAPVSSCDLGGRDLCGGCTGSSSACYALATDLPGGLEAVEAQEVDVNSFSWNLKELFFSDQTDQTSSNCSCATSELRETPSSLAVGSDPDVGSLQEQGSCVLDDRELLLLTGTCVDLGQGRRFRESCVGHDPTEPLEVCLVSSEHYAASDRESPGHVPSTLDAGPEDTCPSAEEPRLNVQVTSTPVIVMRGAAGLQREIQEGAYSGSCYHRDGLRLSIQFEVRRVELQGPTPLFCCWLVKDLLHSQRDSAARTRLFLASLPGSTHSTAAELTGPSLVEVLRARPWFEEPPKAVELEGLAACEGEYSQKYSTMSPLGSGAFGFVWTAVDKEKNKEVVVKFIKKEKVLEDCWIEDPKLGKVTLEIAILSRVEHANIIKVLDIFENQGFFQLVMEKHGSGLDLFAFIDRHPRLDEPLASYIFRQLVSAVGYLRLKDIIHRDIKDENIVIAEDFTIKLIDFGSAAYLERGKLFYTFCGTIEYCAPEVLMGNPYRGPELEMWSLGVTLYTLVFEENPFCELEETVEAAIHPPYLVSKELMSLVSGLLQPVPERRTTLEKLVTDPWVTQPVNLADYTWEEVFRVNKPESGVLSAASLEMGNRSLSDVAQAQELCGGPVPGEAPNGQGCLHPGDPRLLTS

Compound	IC50 [1] [nM]	other results
Cc1c(-c2cnn3ccc(-c4cc(C(=O)O)co4)cc23)cnn1C [Cpd 12, 5-[3-(1,5-dimethylpyrazol-4-yl)pyrazolo[1,5-a]pyridin-5-yl]furan-3-carboxylic acid]	0.01 to 10	–
Cc1nn(C(F)F)c(C)c1-c1cnn2ccc(-c3ccc(C(=O)O)o3)cc12 [Cpd 51, 5-[3-[1-(difluoromethyl)-3,5-dimethyl-pyrazol-4-yl]pyrazolo[1,5-a]pyridin-5-yl]furan-2-carboxylic acid]	0.01 to 10	–
COCCOc1nc(-c2ccn3ncc(-c4c(C)noc4C)c3c2)sc1C(=O)O [Cpd 59, 2-[3-(3,5-dimethylisoxazol-4-yl)pyrazolo[1,5-a]pyridin-5-yl]-4-(2-methoxyethoxy) thiazole-5-carboxylic acid]	0.01 to 10	–
Cc1c(-c2cnn3ccc(-c4nc(C(=O)O)co4)cc23)c(C(F)(F)F)nn1C [Cpd 57, 2-[3-[1,5-dimethyl-3-(trifluoromethyl)pyrazol-4-yl]pyrazolo[1,5-a]pyridin-5-yl]oxazole-4-carboxylic acid]	0.01 to 10	–
Cc1nn(C(F)F)c(C)c1-c1cnn2ccc(-c3ncc(C(=O)O)o3)cc12 [Cpd 49, 2-[3-[1-(difluoromethyl)-3,5-dimethyl-pyrazol-4-yl]pyrazolo[1,5-a]pyridin-5-yl]oxazole-5-carboxylic acid]	0.01 to 10	–
Cc1nn(C(C)C)c(C)c1-c1cnn2ccc(-c3ccc(C(=O)O)o3)cc12 [Cpd 48, 5-[3-(1-isopropyl-3,5-dimethyl-pyrazol-4-yl)pyrazolo[1,5-a]pyridin-5-yl]furan-2-carboxylic acid]	0.01 to 10	–
Cc1nn(C(F)F)c(C)c1-c1cnn2ccc(-c3cc(C(=O)O)c(C4=CCOCC4)o3)cc12 [Cpd 54, 5-[3-[1-(difluoromethyl)-3,5-dimethyl-pyrazol-4-yl]pyrazolo[1,5-a]pyridin-5-yl]-2-(3,6-dihydro-2H-pyran-4-yl)furan-3-carboxylic acid]	0.01 to 10	–
CN(C)C(=N)N=C(N)N [metformin, reference compound]	–	Bodyweight change (% change from baseline) [2, 3]: 1.0%; HbA1c change (% change from baseline) [2, 3]: −2.8%; Bodyweight change (% change from baseline) [2, 4]: −0.7%; HbA1c change (% change from baseline) [2, 4]: −12.3%; Bodyweight change (% change from baseline) [2, 5]: −1.3%; HbA1c change (% change from baseline) [2, 5]: −17.2%; Bodyweight change (% change from baseline) [2, 6]: −5.2%; HbA1c change (% change from baseline) [2, 6]: −18.9%; Bodyweight change (% change from baseline) [2, 7]: −6.5%; HbA1c change (% change from baseline) [2, 7]: −24.1%; Bodyweight change (% change from baseline) [2, 8]: −7.3%; HbA1c change (% change from baseline) [2, 8]: −23.5%; Bodyweight change (% change from baseline) [2, 9]: −6.3%; HbA1c change (% change from baseline) [2, 9]: −30.1%; Bodyweight change (% change from baseline) [2, 10]: −6.1%; HbA1c change (% change from baseline) [2, 10]: −28.6%
Cc1noc(C)c1-c1cnn2ccc(-n3cc(C(=O)O)cn3)cc12 [Cpd 47, 1-[3-(3,5-dimethylisoxazol-4-yl)pyrazolo[1,5-a]pyridin-5-yl]pyrazole-4-carboxylic acid]	10 to 100	–
Cc1noc(C)c1-c1cnn2ccc(-c3nc(OC(C)C)c(C(=O)O)s3)cc12 [Cpd 56, 2-[3-(3,5-dimethylisoxazol-4-yl)pyrazolo[1,5-a]pyridin-5-yl]-4-isopropoxy-thiazole-5-carboxylic acid]	0.01 to 10	–
Cn1cc(-c2cnn3ccc(-c4cc(C(=O)O)co4)cc23)c(C(F)(F)F)n1 [Cpd 10, 5-[3-[1-methyl-3-(trifluoromethyl)pyrazol-4-yl]pyrazolo[1,5-a]pyridin-5-yl]furan-3-carboxylic acid]	0.01 to 10	–
Cc1noc(C)c1-c1cnn2ccc(-c3nc(OC4COC4)c(C(=O)O)s3)cc12 [Cpd 58, 2-[3-(3,5-dimethylisoxazol-4-yl)pyrazolo[1,5-a]pyridin-5-yl]-4-(oxetan-3-yloxy) thiazole-5-carboxylic acid]	0.01 to 10	–
Cc1nn(CC(F)(F)F)c(C)c1-c1cnn2ccc(-c3cc(C(=O)O)c(C4CCOCC4)o3)cc12 [Cpd 55, 5-[3-[3,5-dimethyl-1-(2,2,2-trifluoroethyl)pyrazol-4-yl]pyrazolo[1,5-a]pyridin-5-yl]-2-tetrahydropyran-4-yl-furan-3-carboxylic acid]	0.01 to 10	–
Cc1nn(C(C)C)c(C)c1-c1cnn2ccc(-n3cc(C(=O)O)cn3)cc12 [Cpd 52, 1-[3-(1-isopropyl-3,5-dimethyl-pyrazol-4-yl)pyrazolo[1,5-a]pyridin-5-yl]pyrazole-4-carboxylic acid]	0.01 to 10	–
Cc1nn(CC(F)(F)F)c(C)c1-c1cnn2ccc(-c3cc(C(=O)O)c(C4=CCOCC4)o3)cc12 [Cpd 53, 2-(3,6-dihydro-2H-pyran-4-yl)-5-[3-[3,5-dimethyl-1-(2,2,2-trifluoroethyl)pyrazol-4-yl]pyrazolo[1,5-a]pyridin-5-yl]furan-3-carboxylic acid]	0.01 to 10	–
Cc1nn(C)c(C)c1-c1cnn2ccc(-c3cc(C(=O)OCOC(=O)C(C)(C)C)co3)cc12 [Cpd 13, 2,2-dimethylpropanoyloxymethyl 5-[3-(1,3,5-trimethylpyrazol-4-yl)pyrazolo[1,5-a]pyridin-5-yl]furan-3-carboxylate]	100 to 500	–

Now from value to molecule, other results behind:

IC50 [1] [nM]	Compound	other results
100 to 500	CCOC(=O)c1sc(-c2ccn3ncc(-c4c(C)nn(C)c4C)c3c2)nc1OC [Cpd 87, ethyl 4-methoxy-2-[3-(1,3,5-trimethylpyrazol-4-yl)pyrazolo[1,5-a]pyridin-5-yl]thiazole-5-carboxylate]	–
0.01 to 10	Cc1nn(CC(F)(F)F)c(C)c1-c1cnn2ccc(-n3cc(C(=O)O)c(C(F)(F)F)n3)cc12 [Cpd 81, 1-[3-[3,5-dimethyl-1-(2,2,2-trifluoroethyl)pyrazol-4-yl]pyrazolo[1,5-a]pyridin-5-yl]-3-(trifluoromethyl)pyrazole-4-carboxylic acid]	–
0.01 to 10	CCOCCOc1nc(-c2ccn3ncc(-c4c(C)noc4C)c3c2)sc1C(=O)O [Cpd 60, 2-[3-(3,5-dimethylisoxazol-4-yl)pyrazolo[1,5-a]pyridin-5-yl]-4-(2-ethoxyethoxy) thiazole-5-carboxylic acid]	–
10 to 100	COc1nn(-c2ccn3ncc(-c4c(C)noc4C)c3c2)cc1C(=O)O [Cpd 63, 1-[3-(3,5-dimethylisoxazol-4-yl)pyrazolo[1,5-a]pyridin-5-yl]-3-methoxy-pyrazole-4-carboxylic acid]	–
0.01 to 10	Cc1nn(C)c(C)c1-c1cnn2ccc(-n3cc(C(=O)O)cn3)cc12 [Cpd 73, 1-[3-(1,3,5-trimethylpyrazol-4-yl)pyrazolo[1,5-a]pyridin-5-yl]pyrazole-4-carboxylic acid]	–
0.01 to 10	Cc1noc(C)c1-c1cnn2ccc(-c3nc(OC(F)F)c(C(=O)O)s3)cc12 [Cpd 61, 4-(difluoromethoxy)-2-[3-(3,5-dimethylisoxazol-4-yl)pyrazolo[1,5-a]pyridin-5-yl]thiazole-5-carboxylic acid]	–
0.01 to 10	CCn1nc(C)c(-c2cnn3ccc(-n4cc(C(=O)O)c(OC)n4)cc23)c1C [Cpd 75, 1-[3-(1-ethyl-3,5-dimethyl-pyrazol-4-yl)pyrazolo[1,5-a]pyridin-5-yl]-3-methoxy-pyrazole-4-carboxylic acid]	–
100 to 500	CCOC(=O)c1sc(-c2ccn3ncc(-c4c(C)nn(C)c4C)c3c2)nc1OCC [Cpd 88, ethyl 4-ethoxy-2-[3-(1,3,5-trimethylpyrazol-4-yl)pyrazolo[1,5-a]pyridin-5-yl]thiazole-5-carboxylate]	–
0.01 to 10	COc1nn(-c2ccn3ncc(-c4c(C)nn(C(F)F)c4C)c3c2)cc1C(N)=O [Cpd 83, 1-[3-[1-(difluoromethyl)-3,5-dimethyl-pyrazol-4-yl]pyrazolo[1,5-a]pyridin-5-yl]-3-methoxy-pyrazole-4-carboxamide]	–
10 to 100	Cc1nn(C(C)C)c(C)c1-c1cnn2ccc(-n3cc(C(=O)O)c(C(F)(F)F)n3)cc12 [Cpd 80, 1-[3-(1-isopropyl-3,5-dimethyl-pyrazol-4-yl)pyrazolo[1,5-a]pyridin-5-yl]-3-(trifluoromethyl)pyrazole-4-carboxylic acid]	–
